US10759816B2, “Heterocyclic compounds as RSV inhibitors” (Enanta Pharmaceuticals, Inc., priority 2016, dated 2020)

These compounds were tested on genotype A, "Long" strain RSV (assay: RSV-A in vitro cytoprotection assay in HEp-2 cells (ATPlite readout of cell viability)). Conditions: human respiratory syncytial virus, HEp-2.
Assay type: cell-based, Human respiratory syncytial virus
Summary of the method: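 Cytoprotection measured as ATP-based luminescence (ATPlite) after 4-day incubation of RSV Long-infected HEp-2 cells (8,000/well, 10% FBS DMEM) with 2-fold serial compound dilutions in duplicate. Identically treated virus-free plate gives cytotoxicity; EC50 calculated from viability.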

SMILES	EC50
O=C(Nc1ccccc1F)N[C@H]1N=C(c2ccccc2)c2ccccc2NC1=O [RSV-604, reference compound]	~2400 nM

Same assay, conditions: human respiratory syncytial virus, HEp-2, HEp-2 cells, genotype A “Long” strain RSV, cytoprotection; read-out: Human RSV-A (“Long” strain) EC50

SMILES	EC50
Cc1cccc(F)c1NC(=O)c1cc2c(s1)-c1ccccc1N(C(=O)c1cccc(N3C(=O)OC[C@@H]3c3ccccc3)n1)CC2 [Example 425]	< 400 nM
COc1ccc(-c2nc(C(=O)N3CCc4cc(C(=O)NC5CC5)sc4-c4ccccc43)ccc2C#N)cn1 [Example 70]	> 800 nM
CN(Cc1ccccn1)c1cccc(C(=O)N2CCc3cc(C(=O)NC4CC4)sc3-c3ccccc32)n1 [Example 286]	> 800 nM
O=C(NC1CC1)c1cc2c(s1)-c1ccccc1N(C(=O)c1ccc3ccc(-c4ccncc4)cc3n1)CC2 [Example 186]	> 800 nM
Cc1cccc(F)c1NC(=O)c1cc2c(s1)-c1ccccc1N(C(=O)c1cccc(N(C)C3CCOCC3)n1)CC2 [Example 362]	< 400 nM
Cc1cccc2c1CN(c1cccc(C(=O)N3CCc4cc(C(=O)Nc5c(C)cccc5F)sc4-c4ccccc43)n1)CCO2 [Example 405]	< 400 nM
O=C(Nc1cc2c(s1)-c1ccccc1N(C(=O)c1cccc(N3CCOc4ccccc4C3)n1)CC2)C1CC1 [Example 314]	> 800 nM
Cc1cccc(F)c1NC(=O)c1cc2c(s1)-c1ccccc1N(C(=O)c1cccc(-c3cn(S(C)(=O)=O)nc3C3CC3)n1)CC2 [Example 215]	< 400 nM
Cc1cccc(F)c1NC(=O)c1cc2c(s1)-c1ccccc1N(C(=O)c1cccc(N(C)CCS(C)(=O)=O)n1)CC2 [Example 333]	< 400 nM
Cc1cccc(F)c1NC(=O)c1cc2c(s1)-c1ccccc1N(C(=O)c1cccc(N3CCCN(S(=O)(=O)c4ccccc4)CC3)n1)CC2 [Example 386]	< 400 nM
NNC(=O)c1ccc2c(c1)CCN(C(=O)c1cccc(N3CCOc4ccccc4C3)n1)c1ccccc1-2 [Example 398]	> 800 nM
Cc1cccc(F)c1NC(=O)c1cc2c(s1)-c1ccccc1N(C(=O)c1cccc(-c3cnn(S(C)(=O)=O)c3C3CC3)n1)CC2 [Example 216]	< 400 nM
O=C(N[C@@H]1CCOC1)c1cc2c(s1)-c1ccccc1N(C(=O)c1cccc(N3CCOc4ccccc4C3)n1)CC2 [Example 309]	< 400 nM
Cc1cccc(F)c1NC(=O)c1cc2c(s1)-c1ccccc1N(C(=O)c1cccc(NC[C@@H]3CCCO3)n1)CC2 [Example 459]	< 400 nM
COc1ccc(-c2cccc(C(=O)N3CCc4cc(C(=O)Nc5ccccc5)sc4-c4ccccc43)n2)cn1 [Example 168]	> 800 nM
O=C(NC1CC1)c1cc2c(s1)-c1ccccc1N(C(=O)c1cncc(N3CCOCC3)c1)CC2 [Example 47]	> 800 nM
COC[C@H]1CCCN1c1cccc(C(=O)N2CCc3cc(C(=O)Nc4c(C)cccc4F)sc3-c3ccc(F)cc32)n1 [Example 490]	< 400 nM
Cc1cccc(F)c1NC(=O)c1cc2c(s1)-c1ccccc1N(C(=O)c1cccc(N(CCO)C3CCC3)n1)CC2 [Example 327]	< 400 nM
CN(C)c1cc(-c2cccc(C(=O)N3CCc4cc(C(=O)NC5CC5)sc4-c4ccccc43)n2)ccn1 [Example 84]	400 to 800 nM
Cc1cccc(F)c1NC(=O)c1cc2c(s1)-c1ccccc1N(C(=O)c1cccc(N3CCOc4ccc(Br)cc4C3)n1)CC2 [Example 367]	< 400 nM
Cc1cccc(F)c1NC(=O)c1cc2c(s1)-c1ccccc1N(C(=O)c1cccc(N3CCN(C)S(=O)(=O)CC3)n1)CC2 [Example 447]	< 400 nM
Cc1cccc(F)c1NC(=O)c1cc2c(s1)-c1cccc(F)c1N(C(=O)c1cccc(N3CCCOCC3)n1)CC2 [Example 503]	< 400 nM
Cc1cccc(F)c1NC(=O)c1cc2c(s1)-c1ccccc1N(C(=O)c1cccc(-n3cnc(C4CC4)c3)n1)CC2 [Example 149]	< 400 nM
Cc1cccc(F)c1NC(=O)c1cc2c(s1)-c1ccccc1N(C(=O)c1cccc(NC3CCS(=O)(=O)CC3)n1)CC2 [Example 454]	> 800 nM

SMILES	EC50
CS(=O)(=O)N1CCCc2cc(C(=O)N3CCc4cc(C(=O)NC5CC5)sc4-c4ccccc43)ccc21 [Example 9]	> 800 nM
O=C(NC1CC1)c1cc2c(s1)-c1ccccc1N(C(=O)c1cccc(-c3nncn3C3CC3)n1)CC2 [Example 126]	> 800 nM
O=C(NC1CC1)c1cc2c(s1)-c1ccccc1N(C(=O)c1cccc(NCC3CCOC3)n1)CC2 (stereo not shown) [Example 291]	> 800 nM
O=C(NC1CC1)c1cc2c(s1)-c1ccccc1N(C(=O)c1cccc(-c3ccc(N4CCOCC4)nc3)n1)CC2 [Example 89]	400 to 800 nM
O=C(NC1CC1)c1cc2c(s1)-c1ccccc1N(C(=O)c1cccc(N3CCOC[C@@H]3c3ccccc3)n1)CC2 [Example 276]	> 800 nM
O=C(NC1CC1)c1cc2c(s1)-c1ccccc1N(C(=O)c1ccc3c(c1)ncn3C1CCOCC1)CC2 [Example 14]	> 800 nM
O=C(NC1CC1)c1cc2c(s1)-c1ccccc1N(C(=O)c1cccc(-c3cc(N4CCOCC4)ncc3F)n1)CC2 [Example 91]	400 to 800 nM
Cc1cccc(F)c1NC(=O)c1cc2c(s1)-c1ccccc1N(C(=O)c1cccc(-c3cnc(C)n3C3CC3)n1)CC2 [Example 198]	< 400 nM
COC(=O)n1cc(-c2ccc(C(=O)N3CCc4cc(C(=O)Nc5c(C)cccc5F)sc4-c4ccccc43)cc2)c2cccnc21 [Example 267]	> 800 nM
O=C(NC1CCC1)c1cc2c(s1)-c1ccccc1N(C(=O)c1cccc(-c3c[nH]nc3C3CC3)n1)CC2 [Example 178]	< 400 nM
Cc1cccc(F)c1NC(=O)c1cc2c(s1)-c1ccccc1N(C(=O)c1cccc(N3CCN(C4CC4)S(=O)(=O)CC3)n1)CC2 [Example 448]	< 400 nM
O=C(NC1CC1)c1cc2c(o1)-c1ccccc1N(C(=O)c1cccc(N3CCCOCC3)n1)CC2 [Example 106]	400 to 800 nM
Cc1cccc(F)c1NC(=O)c1cc2c(s1)-c1ccccc1N(C(=O)c1cccc(-c3ccnn3C)n1)CC2 [Example 237]	< 400 nM
Cc1cccc(F)c1NC(=O)c1cc2c(s1)-c1ccccc1N(C(=O)c1ccc(-c3c[nH]c4ccccc34)cc1)CC2 [Example 272]	> 800 nM
COc1ccc(-c2cccc(C(=O)N3CCc4ccc(C(=O)NC5CC5)cc4-c4ccccc43)n2)cn1 [Example 105]	> 800 nM
Cc1cccc(F)c1NC(=O)c1cc2c(s1)-c1ccccc1N(C(=O)c1cccc(-c3cncn3C3(C)CC3)n1)CC2 [Example 201]	> 800 nM
Cc1cccc(F)c1NC(=O)c1cc2c(s1)-c1ccccc1N(C(=O)c1cccc(-c3coc4ccccc34)n1)CC2 [Example 256]	< 400 nM
COCCCNc1cccc(C(=O)N2CCc3cc(C(=O)NC4CC4)sc3-c3ccccc32)n1 [Example 35]	400 to 800 nM
Cc1cccc(F)c1NC(=O)c1cc2c(s1)-c1ccccc1N(C(=O)c1cccc(-c3cnc(C(F)(F)F)n3C3CC3)n1)CC2 [Example 202]	< 400 nM
CNC(=O)c1cc2c(s1)-c1ccccc1N(C(=O)c1cccc(N3CCCOCC3)n1)CC2 [Example 98]	< 400 nM
COc1ncccc1Nc1cccc(C(=O)N2CCc3cc(C(=O)NC4CC4)sc3-c3ccccc32)n1 [Example 410]	> 800 nM
O=C(NC1CC1)c1cc2c(s1)-c1ccccc1N(C(=O)c1cccc(-c3cncc(N4CCOCC4)c3)n1)CC2 [Example 157]	400 to 800 nM
COc1ccc2cc(CN(C)c3cccc(C(=O)N4CCc5cc(C(=O)Nc6c(C)cccc6F)sc5-c5ccccc54)n3)ccc2c1 [Example 356]	> 800 nM
O=C(NC1CC1)c1cc2c(s1)-c1ccccc1N(C(=O)c1cccc(-c3ccc(N4CCOCC4)cc3)n1)CC2 [Example 66]	400 to 800 nM
